Experimental data reported in PMC6522510 (Nature Communications, 2019).
Where two headings read alike, the source gives them in different places. Square brackets hold non-standard residues; d marks the D form. Peptide text beside a SMILES is read from it. * marks the point of attachment. Sta = CC(C)C[C@H](N)[C@@H](O)CC(=O)O; Isovaleryl = CC(C)CC(=O)*

Assays:
Parameters in all cases: species or system AML cell lines (8); Primary HTS, single concentration about 10 uM, Cell Titer Glo viability; log10 luminescence, per cent inhibition relative to cycloheximide control
Details in all cases: 72 h, relative to cycloheximide control, log10 luminescence, inhibitor
[1] = tested on: CHRF288-11
[2] = tested on: MOLM-13
[3] = tested on: M07e
[4] = tested on: ML-2
[5] = tested on: CMS
[6] = tested on: MV4-11
[7] = tested on: U937
[8] = tested on: CMK

Compound	CHRF288-11 %inh ([1]; CHRF288-11 %inh, 10 µM)	MOLM-13 %inh ([2]; MOLM-13 %inh, 10 µM)	M07e %inh ([3]; M07e %inh, 10 µM)	ML-2 %inh ([4]; ML-2 %inh, 10 µM)	CMS %inh ([5]; CMS %inh, 10 µM)	MV4-11 %inh ([6]; MV4-11 %inh, 10 µM)	U937 %inh ([7]; U937 %inh, 10 µM)	CMK %inh ([8]; CMK %inh, 10 µM)	CHRF288-11 %inh [1]	MOLM-13 %inh [2]	M07e %inh [3]	ML-2 %inh [4]	CMS %inh [5]	MV4-11 %inh [6]	U937 %inh [7]	CMK %inh [8]
CC[C@H]1OC(=O)[C@H](C)[C@@H](O[C@H]2C[C@@](C)(OC)[C@@H](O)[C@H](C)O2)[C@H](C)[C@@H](O[C@@H]2O[C@H](C)C[C@H](N(C)C)[C@H]2O)[C@](C)(OC)C[C@@H](C)C(=O)[C@H](C)[C@@H](O)[C@]1(C)O [SJ000286061-3, CLARITHROMYCIN]	-0.08051%	2.582%	0.43%	2.326%	-1.005%	1.904%	1.585%	1.841%								
Cc1ccc(O)cc1Nc1ccnc2cc(-c3ccccn3)ccc12 [SJ000573269-1, R1902/28/3 | HC 206053 | GW440139B | | RTP SMTECH | SID124349934 | TCMDC-138201 | GW440139B |]									60.6%	20.29%	10.95%	1.439%	4.641%	3.761%	14.95%	50.01%
CCCCC[C@H](CC(=O)NO)C(=O)N[C@H](C(=O)N1CCC[C@H]1CO)C(C)C [SJ000285589-6, ACTINONIN]									7.871%	22.93%	6.094%	7.53%	4.96%	13.23%	11.94%	2.47%
Cn1c(=O)c(Oc2ccc(F)cc2F)cc2cnc(NC(C)(C)CO)nc21 [SJ000580971-1]									4.115%	3.693%	0.06396%	-1.151%	-1.762%	3.201%	1.382%	4.061%
CCOC(=O)c1ncn2c1CN(C)C(=O)c1cc(F)ccc1-2 [SJ000287880-4, FLUMAZENIL]									1.517%	-0.5944%	1.865%	-1.521%	5.754%	0.7722%	0.9807%	-1.15%
Cc1c(F)c(N2CCNC(C)C2)cc2c1c(=O)c(C(=O)O)cn2C1CC1 (centres unmarked) [SJ000556748-1, GREPAFLOXACIN]									7.335%	27.08%	-0.4769%	-2.485%	-1.062%	-0.8156%	0.03292%	-2.149%
CC(C)CC(=O)N[C@H](C(=O)N[C@H](C(=O)N[C@@H](CC(C)C)[C@@H](O)CC(=O)N[C@@H](C)C(=O)N[C@@H](CC(C)C)[C@@H](O)CC(=O)O)C(C)C)C(C)C [SJ000287258-3, PEPSTATIN A] (Isovaleryl-VV[Sta]A[Sta]-OH)	20.49%	-0.1246%	1.266%	1.096%	1.08%	0.8934%	4.393%	-4.878%								
Nc1c(C(=O)c2ccccc2)cnn1-c1ccc(F)cc1 [SJ000581122-1]									-5.198%	2.618%	10.33%	1.652%	-0.3703%	-1.368%	-0.682%	1.79%
COc1c(C(N)=O)cc(-c2ccc(Cl)cc2)cc1-c1ccc(S(N)(=O)=O)cc1 [SJ000573112-1, R12706/72/1]									-3.227%	6.365%	-1.128%	3.182%	5.358%	-1.028%	1.708%	7.525%
Cn1cc(C=C2C(=O)Nc3cccnc32)c2ccccc21 [SJ000573065-1, U14362/24/1 | GW-441756 | GW441756]									-4.894%	21.32%	-6.294%	-1.442%	-3.947%	36.15%	-3.233%	2.086%
CN1C(=O)CC(C)(c2ccccc2)C1=O (centres unmarked) [SJ000552432-1, METHSUXIMIDE]									16.75%	28.78%	28%	19.33%	-2.292%	59.35%	35.22%	0.7754%
COc1ccc2cc(CCC(C)=O)ccc2c1 [SJ000285475-4, NABUMETONE]	-4.035%	3.416%	-0.5005%	1.434%	-2.394%	-0.967%	0.6601%	3.657%								
COc1cccc(C(=O)c2sc(Nc3ccc(N4CCN(C(C)C)CC4)cc3)nc2N)c1 [SJ000581014-1]									15.68%	103.8%	8.945%	8.496%	7.49%	15.32%	25.4%	33.11%
Fc1cccc(COc2ccc(Nc3ncncc3C#Cc3ccccc3)cc2Cl)c1 [SJ000573262-1, U15872/50/1]									-1.921%	-0.1156%	-0.005299%	1.8%	-2.059%	1.812%	1.725%	-0.522%
CCOc1cc(CC(=O)N[C@@H](CC(C)C)c2ccccc2N2CCCCC2)ccc1C(=O)O [SJ000287528-2, REPAGLINIDE]	3.798%	-0.4831%	3.133%	3.177%	0.05176%	0.6192%	-2.093%	-2.471%								
O=C1CCc2cc(OCCCCc3nnnn3C3CCCCC3)ccc2N1 [SJ000285433-6, CILOSTAZOL]									-1.23%	2.454%	4.292%	-1.307%	1.219%	1.479%	-1.919%	3.033%
